The text below walks through data of ChEMBL document CHEMBL1201862, “PubChem BioAssay data set” (2004).

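Results reflect a 48-hour exposure of cells in 96-well plates to compound at five concentrations. The concentration for 50% growth inhibition is given as GI50.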 Active and inactive are the calls of the source. Cut-off read from the data, not from the text of the source: active = GI50 up to about 1.1 µM and inactive = higher.

Test in all cases: NCI tumour cell line growth inhibition, 48 h
In test [1] the test system is SW-620.
Test [2] relates to Hs-578T.
The subject of test [3] is EKVX.
The test system of test [4] is SN12C.
The test system of test [5] is OVCAR-8.
The subject of test [6] is K562.
Test [7] concerns RXF 393.
Test [8] concerns OVCAR-3.
Test [9] concerns HL-60.
Test [10] deals with KM12.
In test [11] the test system is SF-268.
In test [12] the test system is MCF7.
For test [13], the system named is Malme-3M.
Test [14] concerns M14.
In test [15] the test system is OVCAR-4.
The subject of test [16] is SNB-19.
Test [17] has as its system A498.
The subject of test [18] is NCI-H23.
The test system of test [19] is ACHN.
In test [20] the test system is SK-MEL-2.

With `CC(C)/C(Cl)=N\OC(=O)Nc1ccc(S(N)(=O)=O)cc1`, the GI50 was 1.86 µM (inactive) in [1]; 25.2 µM (inactive) in [2]; 18.5 µM (inactive) in [3]; 13.9 µM (inactive) in test [4]; 17.9 µM (inactive) in [5]; 2.79 µM (inactive) in test [6]. The GI50 is 12.6 µM (inactive) in test [7]; 14.3 µM (inactive) in test [8]; 1.89 µM (inactive) in [9]; 18.4 µM (inactive) in test [10]; 23.9 µM (inactive) in test [11]; 12.1 µM (inactive) in test [12]. For the same compound, the GI50 in test [13] was 4.59 µM (inactive); in test [14], 8.13 µM (inactive); in [15], 25 µM (inactive); in [16], > 53.2 µM (inactive); in [17], 17 µM (inactive); in [18] it was 19.2 µM (inactive). Also, the GI50 in test [19] was 13.9 µM (inactive); in [20], 18.7 µM (inactive).
Turning to `Cn1cc2c(=O)n3ncn(-c4ccc(Br)cc4)c3nc2n1`, the GI50 in [1], in [2], in [3], in [4], in test [5] and in test [6] was > 100 µM (inactive) in each case. Besides, the GI50 in [7], in test [8], in test [9], in test [10], in [11] and in [12] was > 100 µM (inactive) in each case. Besides, the GI50 in test [13], in test [14], in [15], in [16], in test [17] and in [18] was > 100 µM (inactive) throughout. Besides, the GI50 in test [19] and in test [20] was > 100 µM (inactive) in each case.
Consider `CC(=N\c1ccncc1)/C(C)=N/c1ccncc1`, for which the GI50 in test [1] was 30.8 µM (inactive); in test [2] it was 28.8 µM (inactive); in test [3] it was 20.7 µM (inactive); in test [4] it was 16.2 µM (inactive); in test [5] it was 35.2 µM (inactive); in test [6], 31 µM (inactive). Also, the GI50 was 27.4 µM (inactive) in test [7]; 15.4 µM (inactive) in test [8]; 26.7 µM (inactive) in test [9]; 38.3 µM (inactive) in test [10]; 30.4 µM (inactive) in [11]; 16.7 µM (inactive) in test [12]. The GI50 is 17.6 µM (inactive) in test [13]; 18.7 µM (inactive) in [14]; 11.4 µM (inactive) in test [15]; 27.5 µM (inactive) in test [16]; 34.4 µM (inactive) in test [17]; 16.5 µM (inactive) in [18]. The GI50 in test [19] is 14.5 µM (inactive); in test [20], 20.7 µM (inactive).
On to `O=c1[nH]c2cc([N+](=O)[O-])c(Nc3c4ccccc4nc4ccccc34)c([N+](=O)[O-])c2[nH]1`, for which the GI50 in test [1] was 2.31 µM (inactive); in test [2] it was 7.18 µM (inactive); in [3], 2.47 µM (inactive); in test [4], 2.17 µM (inactive); in test [5] it was 2.43 µM (inactive); in test [6], 2.42 µM (inactive). For the same compound, the GI50 in test [7] is 2.42 µM (inactive); in test [8] it was 2.58 µM (inactive); in test [9], 3.1 µM (inactive); in test [10], 2.26 µM (inactive); in test [11], 3.15 µM (inactive); in test [12], 2.59 µM (inactive). The GI50 in test [13] is 1.77 µM (inactive); in test [14], 2.12 µM (inactive); in test [15], 3.07 µM (inactive); in test [16], 5.02 µM (inactive); in test [17], 2.08 µM (inactive); in test [18] it was 3.49 µM (inactive). Besides, the GI50 in [19] was 1.98 µM (inactive); in test [20] it was 2.72 µM (inactive).
Consider `C1=N\CCNCCNCC/N=C\c2ccc(cc2)OCc2cccc(n2)COc2ccc/1cc2`, for which the GI50 in test [1] is 95.5 µM (inactive); in [2] it was 99.3 µM (inactive); in test [3] it was > 100 µM (inactive); in test [4], > 100 µM (inactive); in [5], > 100 µM (inactive); in [6], 34.1 µM (inactive). Further, the GI50 is > 100 µM (inactive) in test [7]; > 100 µM (inactive) in test [8]; 67.9 µM (inactive) in [9]; 33.2 µM (inactive) in test [10]; 83.6 µM (inactive) in [11]; 29.8 µM (inactive) in test [12]. Moreover, the GI50 was > 100 µM (inactive) in [13]; > 100 µM (inactive) in test [14]; 68.5 µM (inactive) in test [15]; > 100 µM (inactive) in test [16]; > 100 µM (inactive) in test [17]; 86.3 µM (inactive) in test [18]. In addition, the GI50 in test [19] and in test [20] was > 100 µM (inactive) throughout.
Turning to `O=C1/C(=C/c2ccc(Cl)cc2)CCC1CNc1ccc(Cl)cc1` (stereo not given), the GI50 in test [1] is 2.03 µM (inactive); in [2], 16.1 µM (inactive); in [3], 10.7 µM (inactive); in test [4], 10.2 µM (inactive); in test [5], 2.42 µM (inactive); in [6], 0.249 µM (active). In addition, the GI50 in [7] is 11.6 µM (inactive); in test [8] it was 7.18 µM (inactive); in test [9], 0.703 µM (active); in [10] it was 1.29 µM (inactive); in test [11] it was 7.4 µM (inactive); in [12], 1.29 µM (inactive). For the same compound, the GI50 in test [13] was 18 µM (inactive); in test [14], 2.37 µM (inactive); in test [15], 18.9 µM (inactive); in test [16], 14.7 µM (inactive); in test [17], 14.9 µM (inactive); in test [18], 10.3 µM (inactive). Further, the GI50 was 1.57 µM (inactive) in test [19] and 29.2 µM (inactive) in test [20].
